Values quoted from earlier work, collected in EP0490031B1, “Method for protecting crops while eliminating crop injury due to pesticide interactions” (priority 1990, dated 1992).

Experiments:
rabbits = conditions: technical grade

Row | Compound | acute percutaneous LD50 (rabbits) | acute percutaneous LD50 (rats)
1 | CCOP(=S)(OCC)SCSC(C)(C)C [Technical grade terbufos, O,O-diethyl S-{[(1,1-dimethylethyl)thio]methyl}phosphorodithioate] | 1.0 mg/kg of animal body weight | –
2 | CCOP(=S)(OCC)SCSCC [Phorate] | – | 2.5-6.2 mg/kg of animal body weight
